The results in this text go back to patent US7517874B2 (priority 2007, dated 2009).

For experiment [1], the target named is human CB1 receptor (hCB1) (Homo sapiens, UniProt P21554). Kind of experiment: cell-based. It is filed as cell-based. In short, it runs like this: (§1)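 Readout: LANCE TR-FRET cAMP, back-calculated from a concurrent standard curve and scaled between forskolin-only and forskolin + 1 μM CP55,940 wells. EC50 and intrinsic activity came from four-parameter fits.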
In another experiment the target is T1, rat CB2 receptor (rCB2) (Rattus norvegicus, UniProt Q9QZN9).
T1 sequence (Q9QZN9 1-360): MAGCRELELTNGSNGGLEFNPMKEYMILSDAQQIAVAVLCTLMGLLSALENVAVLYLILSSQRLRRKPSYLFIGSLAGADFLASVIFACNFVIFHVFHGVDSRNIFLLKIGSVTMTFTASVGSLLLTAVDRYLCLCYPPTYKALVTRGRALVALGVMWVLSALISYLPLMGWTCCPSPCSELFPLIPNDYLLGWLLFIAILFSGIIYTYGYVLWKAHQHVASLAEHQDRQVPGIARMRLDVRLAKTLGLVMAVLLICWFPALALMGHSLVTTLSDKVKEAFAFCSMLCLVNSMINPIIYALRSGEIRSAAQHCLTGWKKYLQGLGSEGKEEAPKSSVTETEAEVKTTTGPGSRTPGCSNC
In words: cell-based. The conditions noted are these: for +/− RCB2: agonist or inverse agonist at rCB2. It is filed as cell-based. A digest of the protocol: as §1

Chain of human CB1 receptor (hCB1) (P21554 whole entry): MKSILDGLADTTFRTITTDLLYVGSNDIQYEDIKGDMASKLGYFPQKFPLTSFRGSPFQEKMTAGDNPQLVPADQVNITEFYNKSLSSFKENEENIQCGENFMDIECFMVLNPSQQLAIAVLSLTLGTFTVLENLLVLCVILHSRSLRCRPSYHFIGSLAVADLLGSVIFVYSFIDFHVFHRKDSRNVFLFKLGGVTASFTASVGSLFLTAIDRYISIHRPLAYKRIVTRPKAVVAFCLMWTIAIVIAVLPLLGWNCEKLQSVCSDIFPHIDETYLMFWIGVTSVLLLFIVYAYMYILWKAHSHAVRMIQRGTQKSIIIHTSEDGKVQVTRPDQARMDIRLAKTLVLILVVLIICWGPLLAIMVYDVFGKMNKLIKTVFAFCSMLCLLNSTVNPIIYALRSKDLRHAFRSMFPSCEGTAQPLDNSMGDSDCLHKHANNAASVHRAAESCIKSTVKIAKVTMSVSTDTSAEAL

Broadly, the EC50 is the concentration at which the effect is half-maximal. Read a low EC50 as greater potency. In experiment [1], `CNC(=O)[C@@H](NC(=O)c1nc(-c2ccc(C)c(F)c2)n2c1CN(C)CC2)C(C)(C)C` [Compound 240, (S)-N-(3,3-dimethyl-1-(methylamino)-1-oxobutan-2-yl)-3-(3-fluoro-4-methylphenyl)-7-methyl-5,6,7,8-tetrahydroimidazo[1,5-a]pyrazine-1-carboxamide] displayed an EC50 above 10 µM. The “+/− RCB2” value at rat CB2 receptor (rCB2) is listed as “−”.
The like results for `CNC(=O)[C@@H](NC(=O)c1nc(-c2ccc(Cl)cc2F)n2c1CN(C)CC2)C(C)(C)C` [Compound 241, (S)-3-(4-chloro-2-fluorophenyl)-N-(3,3-dimethyl-1-(methylamino)-1-oxobutan-2-yl)-7-methyl-5,6,7,8-tetrahydroimidazo[1,5-a]pyrazine-1-carboxamide] were, in that order, above 10 µM and “−”.
The corresponding values for `CNC(=O)[C@@H](NC(=O)c1nc(-c2cccc3cccnc23)n2c1CN(C)CC2)C(C)(C)C` [Compound 242, (S)-N-(3,3-dimethyl-1-(methylamino)-1-oxobutan-2-yl)-7-methyl-3-(quinolin-8-yl)-5,6,7,8-tetrahydroimidazo[1,5-a]pyrazine-1-carboxamide] are above 10 µM and “−”.
The corresponding values for `C/C=C/c1nc(C(=O)N[C@H](C(=O)NC)C(C)(C)C)c2n1CCN(C)C2` [Compound 243, (S,E)-N-(3,3-dimethyl-1-(methylamino)-1-oxobutan-2-yl)-7-methyl-3-(prop-1-enyl)-5,6,7,8-tetrahydroimidazo[1,5-a]pyrazine-1-carboxamide] are above 10 µM and “+”.
In the case of `CNC(=O)[C@@H](NC(=O)c1nc(-c2cccc(F)c2)n2c1CN(C)CC2)C(C)(C)C` [Compound 244, (S)-N-(3,3-dimethyl-1-(methylamino)-1-oxobutan-2-yl)-3-(3-fluorophenyl)-7-methyl-5,6,7,8-tetrahydroimidazo[1,5-a]pyrazine-1-carboxamide], the EC50 in experiment [1] is above 10 µM. Also, the “+/− RCB2” value at rat CB2 receptor (rCB2) is “+”.
The like results for `CNC(=O)[C@@H](NC(=O)c1nc(-c2cc(C(F)(F)F)ccc2F)n2c1CN(C)CC2)C(C)(C)C` [Compound 245, (S)-N-(3,3-dimethyl-1-(methylamino)-1-oxobutan-2-yl)-3-(2-fluoro-5-(trifluoromethyl)phenyl)-7-methyl-5,6,7,8-tetrahydroimidazo[1,5-a]pyrazine-1-carboxamide] were, in that order, above 10 µM and “−”.
As to `CNC(=O)[C@@H](NC(=O)c1nc(-c2cc(Cl)ccc2F)n2c1CN(C)CC2)C(C)(C)C` [Compound 246, (S)-3-(5-chloro-2-fluorophenyl)-N-(3,3-dimethyl-1-(methylamino)-1-oxobutan-2-yl)-7-methyl-5,6,7,8-tetrahydroimidazo[1,5-a]pyrazine-1-carboxamide], the EC50 in experiment [1] is above 10 µM. In addition, on rat CB2 receptor (rCB2), the “+/− RCB2” value is given as “−”.
The molecule `CNC(=O)[C@@H](NC(=O)c1nc(-c2ccc(F)cc2)n2c1CN(C)CC2)C(C)(C)C` [Compound 247, (S)-N-(3,3-dimethyl-1-(methylamino)-1-oxobutan-2-yl)-3-(4-fluorophenyl)-7-methyl-5,6,7,8-tetrahydroimidazo[1,5-a]pyrazine-1-carboxamide] came in with an EC50 in experiment [1] above 10 µM. The “+/− RCB2” value at rat CB2 receptor (rCB2) was “+”.
In the case of `CNC(=O)[C@@H](NC(=O)c1nc(-c2ccc(F)cc2F)n2c1CN(C)CC2)C(C)(C)C` [Compound 248, (S)-3-(2,4-difluorophenyl)-N-(3,3-dimethyl-1-(methylamino)-1-oxobutan-2-yl)-7-methyl-5,6,7,8-tetrahydroimidazo[1,5-a]pyrazine-1-carboxamide], the EC50 (in experiment [1]; on rat CB2 receptor (rCB2)) was above 10 µM each time.
Molecule `CNC(=O)[C@@H](NC(=O)c1nc(-c2ccc(C)cc2F)n2c1CN(C)CC2)C(C)(C)C` [Compound 249, (S)-N-(3,3-dimethyl-1-(methylamino)-1-oxobutan-2-yl)-3-(2-fluoro-4-methylphenyl)-7-methyl-5,6,7,8-tetrahydroimidazo[1,5-a]pyrazine-1-carboxamide] yielded an EC50 in experiment [1] above 10 µM. In addition, the “+/− RCB2” value on rat CB2 receptor (rCB2) was “−”.
Consider `CNC(=O)[C@@H](NC(=O)c1nc(-c2cc(F)ccc2F)n2c1CN(C)CC2)C(C)(C)C` [Compound 250, (S)-3-(2,5-difluorophenyl)-N-(3,3-dimethyl-1-(methylamino)-1-oxobutan-2-yl)-7-methyl-5,6,7,8-tetrahydroimidazo[1,5-a]pyrazine-1-carboxamide], for which the EC50 (in experiment [1]; on rat CB2 receptor (rCB2)) was above 10 µM throughout.
Molecule `CNC(=O)[C@@H](NC(=O)c1nc(-c2cc(C)ccc2F)n2c1CN(C)CC2)C(C)(C)C` [Compound 251, (S)-N-(3,3-dimethyl-1-(methylamino)-1-oxobutan-2-yl)-3-(2-fluoro-5-methylphenyl)-7-methyl-5,6,7,8-tetrahydroimidazo[1,5-a]pyrazine-1-carboxamide] yielded an EC50 in experiment [1] above 10 µM. For the same molecule, the “+/− RCB2” value on rat CB2 receptor (rCB2) is “−”.
The corresponding values for `CNC(=O)[C@@H](NC(=O)c1nc(-c2cccnc2)n2c1CN(C)CC2)C(C)(C)C` [Compound 252, (S)-N-(3,3-dimethyl-1-(methylamino)-1-oxobutan-2-yl)-7-methyl-3-(pyridin-3-yl)-5,6,7,8-tetrahydroimidazo[1,5-a]pyrazine-1-carboxamide] are above 10 µM and “+”.
The like results for `CNC(=O)[C@@H](NC(=O)c1nc(-c2ccccc2Cl)n2c1CN(C)CC2)C(C)(C)C` [Compound 253, (S)-3-(2-chlorophenyl)-N-(3,3-dimethyl-1-(methylamino)-1-oxobutan-2-yl)-7-methyl-5,6,7,8-tetrahydroimidazo[1,5-a]pyrazine-1-carboxamide] were, in that order, above 10 µM and “+”.
The corresponding values for `CNC(=O)[C@@H](NC(=O)c1nc(-c2ccc(C#N)cc2)n2c1CN(C)CC2)C(C)(C)C` [Compound 254, (S)-3-(4-cyanophenyl)-N-(3,3-dimethyl-1-(methylamino)-1-oxobutan-2-yl)-7-methyl-5,6,7,8-tetrahydroimidazo[1,5-a]pyrazine-1-carboxamide] are above 10 µM and “−”.
Regarding `CNC(=O)[C@@H](NC(=O)c1nc(-c2ccccc2C(F)(F)F)n2c1CN(C)CC2)C(C)(C)C` [Compound 255, (S)-N-(3,3-dimethyl-1-(methylamino)-1-oxobutan-2-yl)-7-methyl-3-(2-(trifluoromethyl)phenyl)-5,6,7,8-tetrahydroimidazo[1,5-a]pyrazine-1-carboxamide], in experiment [1], the EC50 was above 10 µM. Further, at rat CB2 receptor (rCB2), the “+/− RCB2” value is on record as “+”.
The corresponding values for `CNC(=O)[C@@H](NC(=O)c1nc(C2=CCCCC2)n2c1CN(C)CC2)C(C)(C)C` [Compound 256] are above 10 µM and “+”.
The corresponding values for `CNC(=O)[C@@H](NC(=O)c1nc(C=C(C)C)n2c1CN(C)CC2)C(C)(C)C` [Compound 257, (S)-N-(3,3-dimethyl-1-(methylamino)-1-oxobutan-2-yl)-7-methyl-3-(2-methylprop-1-enyl)-5,6,7,8-tetrahydroimidazo[1,5-a]pyrazine-1-carboxamide] are above 10 µM and “+”.
Turning to `CNC(=O)[C@@H](NC(=O)c1nc(-c2ccccc2F)n2c1CN(C)CC2)C(C)(C)C` [Compound 258, (S)-N-(3,3-dimethyl-1-(methylamino)-1-oxobutan-2-yl)-3-(2-fluorophenyl)-7-methyl-5,6,7,8-tetrahydroimidazo[1,5-a]pyrazine-1-carboxamide], the EC50 (in experiment [1]; on rat CB2 receptor (rCB2)) was above 10 µM each time.
As to `CNC(=O)[C@@H](NC(=O)c1nc(-c2ccccc2C#N)n2c1CN(C)CC2)C(C)(C)C` [Compound 259, (S)-3-(2-cyanophenyl)-N-(3,3-dimethyl-1-(methylamino)-1-oxobutan-2-yl)-7-methyl-5,6,7,8-tetrahydroimidazo[1,5-a]pyrazine-1-carboxamide], the EC50 (in experiment [1]; on rat CB2 receptor (rCB2)) was above 10 µM throughout.
Consider `CNC(=O)[C@@H](NC(=O)c1nc(-c2cccc(C#N)c2)n2c1CN(C)CC2)C(C)(C)C` [Compound 260, (S)-3-(3-cyanophenyl)-N-(3,3-dimethyl-1-(methylamino)-1-oxobutan-2-yl)-7-methyl-5,6,7,8-tetrahydroimidazo[1,5-a]pyrazine-1-carboxamide], for which the EC50 in experiment [1] is above 10 µM. Moreover, on rat CB2 receptor (rCB2), the “+/− RCB2” value is listed as “−”.
The like results for `CNC(=O)[C@@H](NC(=O)c1nc(-c2cccc(F)c2F)n2c1CN(C)CC2)C(C)(C)C` [Compound 261, (S)-3-(2,3-difluorophenyl)-N-(3,3-dimethyl-1-(methylamino)-1-oxobutan-2-yl)-7-methyl-5,6,7,8-tetrahydroimidazo[1,5-a]pyrazine-1-carboxamide] were, in that order, above 10 µM and “+”.
With `CNC(=O)[C@@H](NC(=O)c1nc(-c2cc(F)cc(F)c2)n2c1CN(C)CC2)C(C)(C)C` [Compound 262, (S)-3-(3,5-difluorophenyl)-N-(3,3-dimethyl-1-(methylamino)-1-oxobutan-2-yl)-7-methyl-5,6,7,8-tetrahydroimidazo[1,5-a]pyrazine-1-carboxamide], the EC50 in experiment [1] is above 10 µM. Further, on rat CB2 receptor (rCB2), the “+/− RCB2” value was “+”.
The like results for `CNC(=O)[C@@H](NC(=O)c1nc(/C=C/C(C)(C)C)n2c1CN(C)CC2)C(C)(C)C` [Compound 263, (S,E)-N-(3,3-dimethyl-1-(methylamino)-1-oxobutan-2-yl)-3-(3,3-dimethylbut-1-enyl)-7-methyl-5,6,7,8-tetrahydroimidazo[1,5-a]pyrazine-1-carboxamide] were, in that order, above 10 µM and “+”.
